Values of other authors, collected in US20240182893A1, “INHIBITION OF FGR REDUCES FIBROSIS” (UNIVERSITY OF PITTSBURGH-OF THE COMMONWEALTH SYSTEM OF …, priority 2021, published 2024).

Tested on: fibrosis in the lung
Details: in vivo; cited from earlier work

Structure (SMILES) | progression of fibrosis in the lung
COC(=O)c1ccc2c(c1)NC(=O)/C2=C(\Nc1ccc(N(C)C(=O)CN2CCN(C)CC2)cc1)c1ccccc1 [nintedanib] | slow the progression of fibrosis
Cc1ccc(=O)n(-c2ccccc2)c1 [pirfenidone] | slow the progression of fibrosis
